Patent US20030065039A1, “Biologically active 1,3-bis-aromatic-prop-2-en-1-ones, 1,3-bis-aromatic-propan-1-ones, and 1,3-bis-aromatic-prop-2-yn-1-ones” (Statens Serum Institute, priority 1997, published 2003)
Like-named read-outs stand apart in the source and are kept apart here. Marks after values point to notes of the source that are not given here. Values belong to the molecule of their own block, whether it stands above or below them.

Legend:
CHO cells = assay: Chromosomal aberration assay with CHO cells; type: cell-based; details: both with and without metabolic activation (S9 mix)
[1] = target: T1, Helicobacter pylori fumarate reductase (Helicobacter pylori, UniProt O06913); type: biochemical; details: Control 19.2 ± 2.5
T1 construct: Membrane associated proteins were solubilized from the pellet in 150 mM KCl, pH 7.0; endogenous in cells; host or cells: Helicobacter pylori 007 strain; KCl-solubilised fraction (or sonicate supernatant)
T1 sequence (O06913 1-714): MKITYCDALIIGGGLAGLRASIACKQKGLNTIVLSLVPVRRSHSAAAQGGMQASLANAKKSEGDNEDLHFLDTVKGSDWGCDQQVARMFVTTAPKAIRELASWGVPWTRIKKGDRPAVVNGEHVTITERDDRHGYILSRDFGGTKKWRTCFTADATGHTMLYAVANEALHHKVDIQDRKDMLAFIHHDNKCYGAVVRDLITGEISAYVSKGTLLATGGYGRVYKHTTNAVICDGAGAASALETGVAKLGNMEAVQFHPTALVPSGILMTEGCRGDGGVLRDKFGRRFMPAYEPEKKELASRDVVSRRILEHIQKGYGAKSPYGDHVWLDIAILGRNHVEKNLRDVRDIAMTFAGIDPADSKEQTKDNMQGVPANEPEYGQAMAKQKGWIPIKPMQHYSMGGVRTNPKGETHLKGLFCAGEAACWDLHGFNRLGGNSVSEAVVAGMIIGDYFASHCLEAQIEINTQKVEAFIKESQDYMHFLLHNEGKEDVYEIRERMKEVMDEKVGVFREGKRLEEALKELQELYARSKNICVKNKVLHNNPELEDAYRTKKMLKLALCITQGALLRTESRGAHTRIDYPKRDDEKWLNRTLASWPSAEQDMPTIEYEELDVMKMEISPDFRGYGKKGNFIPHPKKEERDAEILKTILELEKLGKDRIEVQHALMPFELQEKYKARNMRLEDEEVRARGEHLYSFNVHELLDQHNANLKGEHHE
T1 sequence (O06914 1-245 partner): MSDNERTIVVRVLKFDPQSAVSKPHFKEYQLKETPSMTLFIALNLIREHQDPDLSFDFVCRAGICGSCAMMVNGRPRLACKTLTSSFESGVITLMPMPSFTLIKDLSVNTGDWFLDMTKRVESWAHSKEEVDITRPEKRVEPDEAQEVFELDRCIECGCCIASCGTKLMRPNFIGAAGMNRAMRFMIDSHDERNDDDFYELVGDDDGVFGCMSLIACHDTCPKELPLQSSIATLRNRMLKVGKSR
T1 sequence (O06912 1-255 partner): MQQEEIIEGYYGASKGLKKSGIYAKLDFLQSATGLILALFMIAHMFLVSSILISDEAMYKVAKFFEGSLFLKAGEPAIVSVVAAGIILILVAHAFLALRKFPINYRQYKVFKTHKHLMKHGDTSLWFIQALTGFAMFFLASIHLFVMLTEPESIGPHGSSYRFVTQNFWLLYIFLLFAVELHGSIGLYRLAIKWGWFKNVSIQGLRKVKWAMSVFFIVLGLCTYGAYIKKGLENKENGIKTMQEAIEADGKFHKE
Experimental: 1) Extraction of soluble FRD: Bacteria were harvested by centrifugation at 18,000 g for 10 min at 4° C., and were washed 2 times in an isotonic phosphate saline buffer (50 mM sodium phosphate, pH 7.2, 90 mM NaCl, 5 mM Kcl). Bacteria were lysed in 5 mM Tris-HCl, pH 7.4, for 15 minutes, and centrifuged 18,000 g for 10 minutes. Membrane associated proteins were solubilized from the pellet in 150 mM KCl, pH 7.0, in ice bath for 60 min, and then the supernatant was collected after centrifugation (18,000 g for 10 minutes) for the measurement of FRD activity.
2) Extraction of FRD by sonication: Bacteria were harvested by centrifugation at 18,000 g for 10 min at 4° C., were sonicated, and then the supernatant was collected after centrifugation (18,000 g for 10 minutes) for the measurement of FRD activity.
NADH-FRD activity was determined as the rate of NADH-oxidation upon addition of 1 mM fumarate in the KCl-solubilized fraction or sonicated fraction. The reaction was monitored spectrophotometrically at 340 nm (∈=6.2 mM^−1 cm^−1) using 100 μM NADH and usually 3 mg protein in both reference and sample cuvettes. The measurement was carried out in a Shimadzu UV-190 double-beam spectrophotometer. Protein concentrations were determined using a Bio-Rad protein assay (Bio-Rad Laboratories, 200 Alfred Nobel Dr. Hercules, Calif. 94547, USA).
KCl solubilised fraction of bacteria was incubated with different concentrations of various oxygenated chalcones at 28° C. and the remaining FRD activity was measured. The IC50 values were determined as the concentration at which 50% of the activity was inhibited.

Bacteroides fragilis = assay: Effect on anaerobic bacteria (growth); type: cell-based; details: at a concentration of 5 μg/ml
[2] = Single dose toxicity in mice; type: in vivo
Experimental: (§1) Also in rats, LDlow po>1000 mg/kg was found. Studies carried out later in the project using the dosing schedule, also used to measure effects against the malaria parasites, confirmed the very good oral tolerance to all compounds tested.

NDH (human MNC) = assay: Effect on human MNC NADH dehydrogenase; type: biochemical; details: incubation at 28° C. for 5 min
Experimental: FIG. 15. Effect of licochalcone A on human MNC NADH dehydrogenase. Membrane rich fraction of parasite was incubated with licochalcone A at 28° C. for 5 min, the remaining enzyme activity was measured. Data are mean ±SEM from 4 different experiments.

SDH (human MNC) = target: T2, SDH (human MNC) (Homo sapiens, UniProt P31040); assay: Effect on human MNC succinate dehydrogenase; type: biochemical; details: incubation at 28° C. for 5 min
T2 construct: endogenous in cells; host or cells: human blood mononuclear cells (MNC), membrane rich fraction

Peptostreptococcus = assay: Effect on anaerobic bacteria (growth); type: cell-based; details: at a concentration of 5 μg/ml
SDH (L. major) = assay: Effect on succinate dehydrogenase of L. major promastigotes; type: biochemical, Leishmania major
Text: FIG. 10. Licochalocone A on SDH of L. major promastigotes (membrane rich fraction)

SDH (J774) = target: T3, SDH (J774) (Mus musculus, UniProt Q8K2B3); assay: Effect on J774 cells succinate dehydrogenase; type: biochemical; details: incubation at 28° C. for 5 min
T3 construct: endogenous in cells; host or cells: J774 cells, membrane rich fraction

[3] = Single dose toxicity in rats; type: in vivo
Experimental: as §1

[4] = compound 50 (unit not given), mean±SD, three experiments

T2 sequence (P31040 43-664): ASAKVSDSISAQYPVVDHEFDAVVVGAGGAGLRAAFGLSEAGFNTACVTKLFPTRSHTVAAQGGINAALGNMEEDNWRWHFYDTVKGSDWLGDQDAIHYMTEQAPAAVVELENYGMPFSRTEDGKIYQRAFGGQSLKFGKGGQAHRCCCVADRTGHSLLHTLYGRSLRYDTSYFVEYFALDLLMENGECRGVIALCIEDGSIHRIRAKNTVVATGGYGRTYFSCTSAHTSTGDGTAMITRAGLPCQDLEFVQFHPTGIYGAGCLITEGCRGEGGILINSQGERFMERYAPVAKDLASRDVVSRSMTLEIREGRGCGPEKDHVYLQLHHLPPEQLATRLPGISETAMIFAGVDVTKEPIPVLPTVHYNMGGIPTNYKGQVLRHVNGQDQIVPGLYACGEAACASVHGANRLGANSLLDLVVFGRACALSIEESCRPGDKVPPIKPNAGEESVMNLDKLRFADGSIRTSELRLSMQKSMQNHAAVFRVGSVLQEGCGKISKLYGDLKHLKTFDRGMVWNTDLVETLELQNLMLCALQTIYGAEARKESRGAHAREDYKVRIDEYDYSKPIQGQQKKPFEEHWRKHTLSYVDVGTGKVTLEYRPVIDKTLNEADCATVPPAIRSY
T2 sequence (P21912 29-280 partner): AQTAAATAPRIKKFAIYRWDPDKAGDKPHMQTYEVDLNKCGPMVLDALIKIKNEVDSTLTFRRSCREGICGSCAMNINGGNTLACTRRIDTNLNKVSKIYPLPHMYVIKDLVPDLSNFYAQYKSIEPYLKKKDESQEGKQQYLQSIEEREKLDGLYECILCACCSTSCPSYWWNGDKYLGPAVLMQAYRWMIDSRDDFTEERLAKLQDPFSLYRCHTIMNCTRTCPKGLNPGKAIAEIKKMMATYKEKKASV
T2 sequence (Q99643 30-169 partner): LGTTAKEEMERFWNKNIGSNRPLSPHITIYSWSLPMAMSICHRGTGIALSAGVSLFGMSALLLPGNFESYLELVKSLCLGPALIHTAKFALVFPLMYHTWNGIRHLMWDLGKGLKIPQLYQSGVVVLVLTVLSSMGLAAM
T2 sequence (O14521 57-159 partner): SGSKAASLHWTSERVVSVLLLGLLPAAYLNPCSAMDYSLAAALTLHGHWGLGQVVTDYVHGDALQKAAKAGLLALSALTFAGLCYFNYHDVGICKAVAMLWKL
T3 sequence (Q8K2B3 43-664): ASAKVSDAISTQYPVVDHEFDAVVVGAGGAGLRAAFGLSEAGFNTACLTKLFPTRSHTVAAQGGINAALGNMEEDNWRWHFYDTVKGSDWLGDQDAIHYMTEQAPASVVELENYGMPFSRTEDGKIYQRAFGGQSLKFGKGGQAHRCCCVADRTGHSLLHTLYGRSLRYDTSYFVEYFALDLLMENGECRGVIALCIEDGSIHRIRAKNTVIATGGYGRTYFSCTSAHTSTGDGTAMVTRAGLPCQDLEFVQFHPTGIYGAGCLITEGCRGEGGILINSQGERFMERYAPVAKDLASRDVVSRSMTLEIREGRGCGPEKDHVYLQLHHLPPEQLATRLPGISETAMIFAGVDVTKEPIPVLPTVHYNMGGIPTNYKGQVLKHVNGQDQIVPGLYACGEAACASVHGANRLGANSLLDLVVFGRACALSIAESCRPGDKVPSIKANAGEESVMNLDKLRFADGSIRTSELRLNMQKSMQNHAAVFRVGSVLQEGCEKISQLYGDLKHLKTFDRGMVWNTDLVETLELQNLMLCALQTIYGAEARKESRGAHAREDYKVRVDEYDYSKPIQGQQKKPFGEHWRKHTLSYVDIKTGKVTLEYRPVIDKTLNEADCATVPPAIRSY
T3 sequence (Q9CQA3 31-282 partner): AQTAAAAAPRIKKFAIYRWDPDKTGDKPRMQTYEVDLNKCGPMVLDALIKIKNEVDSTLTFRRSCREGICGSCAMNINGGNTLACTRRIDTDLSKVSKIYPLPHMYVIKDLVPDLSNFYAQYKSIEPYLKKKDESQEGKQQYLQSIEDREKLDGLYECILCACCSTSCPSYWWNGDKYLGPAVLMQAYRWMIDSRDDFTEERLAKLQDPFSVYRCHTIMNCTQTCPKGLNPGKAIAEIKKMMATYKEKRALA
T3 sequence (Q9CZB0 30-169 partner): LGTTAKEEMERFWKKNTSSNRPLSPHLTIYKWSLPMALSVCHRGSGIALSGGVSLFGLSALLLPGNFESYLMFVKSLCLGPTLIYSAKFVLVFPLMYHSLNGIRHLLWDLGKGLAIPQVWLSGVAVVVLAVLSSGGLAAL
T3 sequence (Q9CXV1 57-159 partner): as the sequence (O14521 57-159 partner) above, with L24I, A27G, A34V, M35V, G47S, A63T, Q65P, K69R, K95R counted along it

- melting point: 75.5 to 76.2 °C
Structure (SMILES): COc1cc(/C=C/C(=O)c2ccc(C3CCCCC3)cc2)cc(OC)c1 [PH104, 3,5-dimethoxy-4′-cyclohexylchalcone]

Structure (SMILES): C=CCOc1ccc(C(=O)/C=C/c2cc(OC)cc(OC)c2)cc1 [SBC-35ma, 3,5-dimethoxy-4′-allyloxychalcone]
- chromosomal aberration assay with CHO cells (CHO cells): clear clastogenic response

- FRD activity ([1]; compound 1 (unit not given)): 15.8 ± 2.0 mu/mg of protein
- FRD activity ([1]; compound 5 (unit not given)): 8.5 ± 1.8 mu/mg of protein
- FRD activity ([1]; compound 10 (unit not given)): 4.1 ± 1.5 mu/mg of protein
- FRD activity ([1]; compound 25 (unit not given)): 1.7 ± 0.7 mu/mg of protein
- FRD activity [1, 4]: 0.0 mu/mg of protein
Structure (SMILES): COc1cc(/C=C/C(=O)c2ccc([N+](=O)[O-])cc2)cc(OC)c1 [PH105, 4′-nitro-3,5-dimethoxychalcone]

Structure (SMILES): C=CC(C)(C)c1cc(/C=C/C(=O)c2ccc(O)cc2)c(OC)cc1O [Licochalcone A]
- growth of Bacteroides fragilis (Bacteroides fragilis): completely inhibted
- LDlow po [2]: > 1000 mg/kg
- IC50 (NDH (human MNC)): 454.2 μg/mg protein
- IC50 (SDH (human MNC)): 799.7 μg/mg protein
- growth of Peptostreptococcus (Peptostreptococcus): completely inhibted
- inhibition (SDH (L. major); at 250 μg/mg protein): *29% inhibition at 250 μg/mg protein
- IC50 (SDH (L. major); incubation at 28° C. for 5 min): >250* μg/mg protein
- FRD activity ([1]; compound 1 (unit not given)): 14.5 ± 2.9 mu/mg of protein
- FRD activity ([1]; compound 5 (unit not given)): 6.8 ± 1.7 mu/mg of protein
- FRD activity ([1]; compound 10 (unit not given)): 2.5 ± 1.1 mu/mg of protein
- FRD activity ([1]; compound 25 (unit not given)): 0.9 ± 0.6 mu/mg of protein
- FRD activity [1, 4]: 0.0 mu/mg of protein
- IC50 (SDH (J774)): 1122.2 μg/mg protein
- LDlow po [3]: > 1000 mg/kg
